# Measured values from PubChem BioAssay (NCI).
# Where “and” joins values, the source holds several entries; their conditions need not be identical. Equal entries are not always repeated.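 Values below derive from 48-hour exposures of cells grown in 96-well plates, with endpoints linearly interpolated between the two concentrations bracketing the appropriate inhibition level. GI50 is the concentration that inhibits growth by half. TGI: concentration producing complete growth inhibition.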
# Key:
# Assay in all cases: DTP human tumour cell line panel, 48 h
# 786-0 renal = tested on: 786-0 renal
# SK-MEL-5 melanoma = tested on: SK-MEL-5 melanoma
# LOX IMVI melanoma = tested on: LOX IMVI melanoma
# OVCAR-8 ovarian = tested on: OVCAR-8 ovarian
# CCRF-CEM leukemia = tested on: CCRF-CEM leukemia
# CAKI-1 renal = tested on: CAKI-1 renal
# HCT-116 colon = tested on: HCT-116 colon
# M14 melanoma = tested on: M14 melanoma
# SF-539 CNS = tested on: SF-539 CNS
SMILES,GI50 (786-0 renal),TGI (786-0 renal),GI50 (SK-MEL-5 melanoma) [µM],TGI (SK-MEL-5 melanoma) [µM],GI50 (LOX IMVI melanoma),TGI (LOX IMVI melanoma),GI50 (OVCAR-8 ovarian),TGI (OVCAR-8 ovarian),GI50 (CCRF-CEM leukemia) [µM],TGI (CCRF-CEM leukemia),GI50 (CAKI-1 renal),TGI (CAKI-1 renal) [µM],GI50 (HCT-116 colon),TGI (HCT-116 colon),GI50 (M14 melanoma) [µM],TGI (M14 melanoma) [µM],GI50 (SF-539 CNS),TGI (SF-539 CNS)
Oc1ccc2oc3ncc(Br)c(-c4ccccc4)c3c2c1,> 100 µM,> 100 µM,> 100,> 100,> 100 µM,> 100 µM,> 100 µM,> 100 µM,> 100,> 100 µM,> 100 µM,> 100,> 100 µM,> 100 µM,> 100,> 100,–,–
Cc1cnc(C(=O)NNc2nc3sc4c(c3c(=O)n2C)C(C)CCC4)cn1 (centres undefined),0.511 µM,5.52 µM,0.363,1.72,0.304 µM,1.75 µM,0.366 µM,11.9 µM,0.245,–,0.333 µM,2.49,0.26 µM,7.06 µM,0.284,2.43,0.396 µM,2.38 µM
COC(=O)Nc1nc2ccc(Br)cc2[nH]1,–,> 100 µM,–,> 100,–,> 100 µM,–,> 100 µM,–,> 100 µM,–,–,–,> 100 µM,–,> 100,–,57.3 µM
S=P(N1CC1)(N1CC1)N1CC1,5.33 µM and 52.4 µM,31.2 µM and 187 µM and 306 µM,–,–,7.14 µM and 54.5 µM,42 µM and 307 µM and 294 µM,20.1 µM and 93.7 µM,58.5 µM and 523 µM and 323 µM,2.11,> 85.8 µM and 622 µM,6.08 µM and 20 µM,–,21.2 µM and 171 µM,46.1 µM and 317 µM and 367 µM,–,–,11.4 µM and 23.3 µM,49 µM and 223 µM and 182 µM
O=C1c2ccccc2-c2c1c1ccccc1c(=O)n2CCCn1ccnc1,1.74 µM,7.72 µM,–,–,0.924 µM,4.33 µM,0.87 µM,2.39 µM,1.51,> 100 µM,0.443 µM,2.05,1.4 µM,13.8 µM,5.71,> 100,2.33 µM,8.06 µM
O=c1c(-c2ccccc2)coc2cc(OC/C(=N/O)c3ccccc3)ccc12,25.4 µM,50.4 µM,10.9,24.6,18.4 µM,37.4 µM,17.3 µM,50.8 µM,4.22,> 100 µM,–,–,11.2 µM,68.6 µM,14.4,39.7,25.4 µM,53.3 µM
NC(N)=NS(=O)(=O)c1ccc(NCCc2c3ccccc3nc3ccccc23)cc1,–,> 100 µM,–,–,–,> 100 µM,–,> 100 µM,–,> 100 µM,–,> 100,–,> 100 µM,–,> 100,–,> 100 µM
COc1cc2c(cc1OC)/C(=C\c1ccccc1N)C(=O)OC2,–,9.96 µM,–,32.6,–,4.18 µM,–,–,–,7.06 µM,–,27.1,–,–,–,55.4,–,31 µM
CN(C)c1ccc(/C=c2\sc3nc4ccccc4n3c2=O)cc1,–,> 100 µM,–,> 100,–,> 100 µM,–,> 100 µM,–,–,–,> 100,–,> 100 µM,–,> 100,–,> 100 µM
O=C(c1ccccc1)c1cn(/N=C\c2ccccc2)c(=O)nc1-c1ccccc1,–,> 100 µM,–,> 100,–,> 100 µM,–,> 100 µM,–,> 100 µM,–,–,–,> 100 µM,–,> 100,–,> 100 µM
CC(=O)C1=C(O)CC2CC3c4[nH]c5ccccc5c4CCN3CC2C1 (centres undefined),–,> 100 µM,–,> 100,–,> 100 µM,–,> 100 µM,–,87.7 µM,–,–,–,> 100 µM,–,> 100,–,> 100 µM
CC(C)=CC1=C2C3=C(C(=O)C4(O)Oc5c(C)c6c7c(c5OC24C)[C@@H](C)CC[C@@H]7[C@@H](C)C[C@H]6C=C(C)C)C(C)CCC3C(C)C1 (some centres undefined),> 100 µM,> 100 µM,> 100,> 100,> 100 µM,> 100 µM,> 100 µM,> 100 µM,> 100,> 100 µM,> 100 µM,> 100,–,–,> 100,> 100,> 100 µM,> 100 µM
CC12CCC(Br)C(C)(C)C1CC=C1C(=O)OCC1O2 (centres undefined),–,> 48.6 µM,–,> 100,–,30.4 µM,–,34.9 µM,–,–,–,26.8,–,> 44.5 µM,–,> 51.9,–,> 100 µM
Cc1cc2c(C)nn(Cc3ccc(Cl)cc3)c2c(C#N)c1C,–,> 100 µM,–,–,–,–,–,> 100 µM,–,> 100 µM,–,–,–,> 100 µM,–,–,–,> 100 µM
Clc1ccc(C(n2cc(Br)cn2)n2cc(Br)cn2)cc1,–,27.8 µM,–,27.2,–,–,–,36.5 µM,–,60.9 µM,–,23.4,–,–,–,35.2,–,–
O=c1c2cc(Cl)ccc2sc2cccc(Cl)c12,–,> 100 µM,–,–,–,> 100 µM,–,> 100 µM,–,> 100 µM,–,> 100,–,> 100 µM,–,> 100,–,> 100 µM
COc1ccc(C2ON(c3cccc(C)n3)CC=C2C)cc1 (centres undefined),–,> 100 µM,–,33.3,–,> 100 µM,–,> 100 µM,–,> 100 µM,–,> 100,–,–,–,> 100,–,> 100 µM
Cc1ccc(Cl)cc1NC(=O)c1sc2nc3c(cc2c1N)C(=O)CCC3,> 100 µM,> 100 µM,3.48,> 100,–,–,> 100 µM,> 100 µM,–,–,3.33 µM,> 100,5.97 µM,> 100 µM,6.31,> 100,4.65 µM,> 100 µM
COc1ccccc1NC(=O)CC(=O)N/N=C/c1ccc(N(CCC#N)S(=O)(=O)c2ccccc2)cc1,–,> 100 µM,–,> 100,–,> 100 µM,–,> 100 µM,–,> 100 µM,–,> 100,–,> 100 µM,–,> 100,–,–
N#CC1CCCCCCCCCCC(=O)N(CCCl)C1=O (centres undefined),–,> 100 µM,–,> 100,–,> 100 µM,–,> 100 µM,–,> 100 µM,–,> 100,–,–,–,> 100,–,> 100 µM
CC(=O)OCc1cc2ccccc2nc1C(Br)(Br)Br,–,46 µM,–,23.9,–,29.2 µM,–,–,–,29.3 µM,–,29.5,–,31.6 µM,–,55,–,38.2 µM
